Converted amounts (≈) assume the structure as drawn. Where two headings read alike, the source gives them in different places.
Key:
Atlantic salmon [1] = test: Safety of formulations based on different solvents after intraperitoneal injection; format: in vivo; settings: i.p. 0.2 ml; 37.8 g, freshwater 17°C; 3 week period
Description: Atlantic salmon (average size: 37.8 g) kept in freshwater (17°C) were divided into 11 groups of 5 or 25 fish per group. Mortality was then logged over a 3 week period. […]

salmonids = settings: Benville et al 1968; cited from earlier work
Atlantic salmon [2] = settings: in vivo, ip, 3 months
Description: To investigate the toxicity of the polar solvent further, formulations comprising different amounts of DMSO were prepared as detailed in Table 4. The formulations were intraperitoneally injected in a single dose into Atlantic salmon (19 - 38 g) kept in freshwater (8 - 17 °C). The eventual toxicity induced by each formulation was assessed by continuous registration of mortality up until 3 months post injection, and is shown in Table 4.
Therefore, it was extremely surprising to find that doses as low as about 1 g/kg cause mortality in Atlantic salmon.

[3] = Solubility of hexaflumuron, solvent added gradually until complete dissolution; format: physicochemical; settings: for solubility: thermodynamic from solid
Description: In order to produce a formulation in which hexaflumuron was present in stable solution, the solubility of hexaflumuron in various other solvents was investigated. Solubility was determined by adding each solvent gradually to a specific mass of hexaflumuron until complete dissolution was observed.

[4] = cited from earlier work
[5] = Maximum solubility of hexaflumuron in PEG/DMSO/CA as a function of PEG molecular weight (Figure 6); format: physicochemical; settings: PEG600/DMSO/CA mixture, organic solvent or mixture, thermodynamic from solid; formulation with 85% by weight PEG600 and 15% by weight DMSO
Description: An experiment was performed in order to investigate the solubility of parasiticide (hexaflumuron) in a formulation comprising PEG (85 mass%), DMSO (15 mass%), and CA (0.3 volume %) as a function of PEG molecular weight. Increasing amounts of hexaflumuron were dissolved in different mixtures of PEG/DMSO/CA (85/15/0.3) with PEG molecular weights ranging from 200 to 600.

Lepeophtheirus salmonis = test: Sea lice challenge of treated Atlantic salmon; format: in vivo; settings: for Mean number of lice per fish Treated group: chalimus stage counted 2 weeks post challenge, n=10; for Relative effect of treatment: versus untreated group
Description: Atlantic salmon (total n=180) were kept in full seawater (3.5% salinity, 12°C). Half of the population (n=90) were treated with parasiticide (in this case hexaflumuron) on day 0. Treated and untreated fish (n=10 per group) were randomly collected from each group and challenged with copepodids of Lepeophtheirus salmonis in a common challenge tank during a 12 weeks period. This was done six times after treatments, in weeks 1, 3, 6, 8, 10 and 12 post treatment. The number of lice reaching chalimus stage was registered on each fish 2 weeks post challenge. Concentration of hexaflumuron in a portion of muscle with skin was also measured in each fish at the time of lice count.

Compound: COCC(C)O (stereo not shown) [1-methoxy-2-propanol]
- % Mortality (Atlantic salmon [1]): 100%

Compound: C[S+](C)[O-] [DMSO, Dimethyl sulfoxide]
- LD50 (salmonids): 12000 to 17000 mg/kg
- dose reported not to give any mortality (salmonids): 7050 mg/kg
- doses at which DMSO was found to be toxic (Atlantic salmon [2]): > 1000 mg/kg

Compound: CCOC(C)=O [Ethyl acetate]
- % Mortality (Atlantic salmon [1]): 100%

Compound: O=C(NC(=O)c1c(F)cccc1F)Nc1cc(Cl)c(OC(F)(F)C(F)F)c(Cl)c1 [Hexaflumuron]
- solubility ([3]; oil or lipid, solvent: Isopropyl myristate): < 1 mg/mL
- solubility ([3]; oil or lipid, solvent: Paraffin Light Liquid): < 0.1 mg/mL
- solubility ([3]; organic solvent or mixture, solvent: Acetone): > 130 mg/mL
- solubility ([3]; organic solvent or mixture, solvent: DMA): > 300 mg/mL
- solubility ([3]; organic solvent or mixture, solvent: DMF): > 300 mg/mL
- solubility ([3]; organic solvent or mixture, solvent: DMSO): > 300 mg/mL
- solubility ([3]; organic solvent or mixture, solvent: Ethyl acetate): > 75 mg/mL
- solubility ([3]; organic solvent or mixture, solvent: NMP): > 300 mg/mL
- solubility ([3]; organic solvent or mixture, solvent: Propylene glycol (PG)): < 0.5 mg/mL
- solubility ([3]; organic solvent or mixture, solvent: Tetraglycol): > 75 mg/mL
- solubility ([3]; organic solvent or mixture, solvent: n-heptane): < 0.5 mg/mL
- Hexaflumuron Solubility ([3]; solvent: DMSO): >300 mg/mL
- Hexaflumuron Solubility ([4]; solvent: Methanol): 11300 µg/mL
- Hexaflumuron Solubility ([4]; solvent: Water): 0.027 µg/mL
- Hexaflumuron Solubility ([4]; solvent: Water, listed as hexaflumuron): about 2.7 x 10^-5 mg/ml
- Hexaflumuron Solubility ([4]; solvent: Xylene): 5200 µg/mL
- solubility [5]: ~130 mg/mL (≈ 282 mM)
- Mean number of lice per fish Treated group (Lepeophtheirus salmonis; challenged week 1 post treatment, Atlantic salmon, seawater 12°C): 0
- Mean number of lice per fish Treated group (Lepeophtheirus salmonis; challenged week 3 post treatment): 0
- Mean number of lice per fish Treated group (Lepeophtheirus salmonis; challenged week 6 post treatment): 0
- Mean number of lice per fish Treated group (Lepeophtheirus salmonis; challenged week 8 post treatment): 0.2
- Mean number of lice per fish Treated group (Lepeophtheirus salmonis; challenged week 10 post treatment): 1.7
- Mean number of lice per fish Treated group (Lepeophtheirus salmonis; challenged week 12 post treatment): 27.6
- Relative effect of treatment (Lepeophtheirus salmonis; week 1 post treatment): 100%
- Relative effect of treatment (Lepeophtheirus salmonis; week 3 post treatment): 100%
- Relative effect of treatment (Lepeophtheirus salmonis; week 6 post treatment): 100%
- Relative effect of treatment (Lepeophtheirus salmonis; week 8 post treatment): 98%
- Relative effect of treatment (Lepeophtheirus salmonis; week 10 post treatment): 69%
- Relative effect of treatment (Lepeophtheirus salmonis; week 12 post treatment): 47%

Compound: CN1CCCC1=O [NMP, n-methyl-2-pyrrolidone]
- % Mortality (Atlantic salmon [1]): 100%

Compound: CC(O)CO (stereo not shown) [PG, propylene glycol]
- % Mortality (Atlantic salmon [1]): 0%

Compound: Glycofurol
- % Mortality (Atlantic salmon [1]): 100%

Reference: patent EP3193856B1, “FORMULATION” (Pharmaq AS, priority 2014, dated 2016)
